{
  "source": "patent EP3231454B1",
  "about": "“BONE CEMENT COMPRISING MICROENCAPSULATED ANTIMICROBIAL” (UNIVERSIDAD PONTIFICIA COMILLAS, priority 2016, dated 2017)",
  "origin": "cited, not measured here",
  "conditions": "addition of 1 g of vancomycin to bone cement",
  "data": [
    {"smiles": "CN[C@H](CC(C)C)C(=O)N[C@H]1C(=O)N[C@@H](CC(N)=O)C(=O)N[C@H]2C(=O)N[C@H]3C(=O)N[C@H](C(=O)N[C@H](C(=O)O)c4cc(O)cc(O)c4-c4cc3ccc4O)[C@H](O)c3ccc(c(Cl)c3)Oc3cc2cc(c3O[C@@H]2O[C@H](CO)[C@@H](O)[C@H](O)[C@H]2O[C@H]2C[C@](C)(N)[C@H](O)[C@H](C)O2)Oc2ccc(cc2Cl)[C@H]1O", "note": "[vancomycin]", "values": [
      {"measurement": "reduction in bending resistance", "result": "more than 20%"}
    ]}
  ]
}
